Data taken from the NIST ThermoML archive (doi:10.1016/j.jct.2009.03.007).
± gives the expanded uncertainty stated by the source.

What was measured:
[1] = molar enthalpy of vaporization or sublimation; details: 298.15 K; Liquid; Calvet microcalorimetry
[2] = 298.15 K; Liquid; Calvet microcalorimetry

For `CCOC(=O)Cc1cccs1` [ethyl 2-thiopheneacetate], the molar enthalpy [1] was 14.8 ± 0.621 kcal/mol.
`CCOC(=O)Cc1ccsc1` [ethyl 3-thiopheneacetate] gave a molar enthalpy [1] of 15.1 ± 0.621 kcal/mol.
With `CCOC(=O)c1cccs1` [ethyl 2-thiophenecarboxylate] the “molar enthalpy of vaporization” value [2] was 13.5 ± 0.621 kcal/mol.
In the case of `COC(=O)c1cccs1` [methyl 2-thiophenecarboxylate], the “molar enthalpy of vaporization” value [2] is reported as 13.8 ± 0.574 kcal/mol.
